Measured values: ChEMBL document CHEMBL1201862, “PubChem BioAssay data set” (2004)
The source made the active and inactive calls.

How the values were obtained:
Activin receptor type-1 = Activin receptor type-1 (Homo sapiens, UniProt Q04771); experiment: Navigating the Kinome. Panel member name: ACVR1; assay type: functional
[1] = biological target: Maternal embryonic leucine zipper kinase (Homo sapiens, UniProt Q14680); assay type: functional
[2] = biological target: Calcium/calmodulin-dependent protein kinase type II subunit delta (Homo sapiens, UniProt Q13557); assay type: functional
Sequence of Calcium/calmodulin-dependent protein kinase type II subunit delta (Q13557 whole entry): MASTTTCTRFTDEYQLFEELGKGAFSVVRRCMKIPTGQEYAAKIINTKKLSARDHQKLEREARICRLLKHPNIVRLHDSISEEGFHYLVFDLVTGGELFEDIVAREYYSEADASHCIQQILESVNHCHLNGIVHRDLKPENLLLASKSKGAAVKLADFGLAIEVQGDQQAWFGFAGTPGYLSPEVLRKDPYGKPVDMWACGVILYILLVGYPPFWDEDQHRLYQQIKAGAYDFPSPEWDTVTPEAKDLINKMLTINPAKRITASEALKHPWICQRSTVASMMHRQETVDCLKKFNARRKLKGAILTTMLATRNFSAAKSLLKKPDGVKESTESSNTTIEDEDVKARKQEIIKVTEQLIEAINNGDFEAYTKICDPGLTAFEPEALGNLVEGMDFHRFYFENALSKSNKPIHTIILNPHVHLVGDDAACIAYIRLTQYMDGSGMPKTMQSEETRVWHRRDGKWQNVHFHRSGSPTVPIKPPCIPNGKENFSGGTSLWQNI

[3] = biological target: Serine/threonine-protein kinase 17A (Homo sapiens, UniProt Q9UEE5); assay type: functional
Sequence of Serine/threonine-protein kinase 17A (Q9UEE5 whole entry): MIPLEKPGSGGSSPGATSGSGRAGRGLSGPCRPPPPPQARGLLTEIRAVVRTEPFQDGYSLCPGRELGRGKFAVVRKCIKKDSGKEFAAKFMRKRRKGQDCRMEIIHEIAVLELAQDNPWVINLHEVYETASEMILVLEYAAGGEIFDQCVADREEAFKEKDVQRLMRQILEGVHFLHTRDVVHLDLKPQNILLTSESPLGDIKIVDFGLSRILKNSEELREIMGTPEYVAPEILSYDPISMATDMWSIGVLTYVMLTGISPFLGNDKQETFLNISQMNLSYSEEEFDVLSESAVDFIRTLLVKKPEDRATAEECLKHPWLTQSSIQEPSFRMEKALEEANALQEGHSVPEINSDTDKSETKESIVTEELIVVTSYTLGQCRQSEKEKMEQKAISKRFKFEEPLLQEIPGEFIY

[4] = biological target: Cyclin-dependent kinase 2 (Homo sapiens, UniProt P24941); assay type: functional;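 also: CDK2 measured as one member of a broad kinome profiling panel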
[5] = biological target: T1, Rac GTPase-activating protein 1 (Homo sapiens, UniProt Q9H0H5); experiment: blockers of MgcRacGAP-driven Rac1 GTP hydrolysis – biochemical, ADP Hunter fluorescence, primary and confirmatory, confirmation (AID 624330); assay type: functional
T1 sequence (Q9H0H5 whole entry): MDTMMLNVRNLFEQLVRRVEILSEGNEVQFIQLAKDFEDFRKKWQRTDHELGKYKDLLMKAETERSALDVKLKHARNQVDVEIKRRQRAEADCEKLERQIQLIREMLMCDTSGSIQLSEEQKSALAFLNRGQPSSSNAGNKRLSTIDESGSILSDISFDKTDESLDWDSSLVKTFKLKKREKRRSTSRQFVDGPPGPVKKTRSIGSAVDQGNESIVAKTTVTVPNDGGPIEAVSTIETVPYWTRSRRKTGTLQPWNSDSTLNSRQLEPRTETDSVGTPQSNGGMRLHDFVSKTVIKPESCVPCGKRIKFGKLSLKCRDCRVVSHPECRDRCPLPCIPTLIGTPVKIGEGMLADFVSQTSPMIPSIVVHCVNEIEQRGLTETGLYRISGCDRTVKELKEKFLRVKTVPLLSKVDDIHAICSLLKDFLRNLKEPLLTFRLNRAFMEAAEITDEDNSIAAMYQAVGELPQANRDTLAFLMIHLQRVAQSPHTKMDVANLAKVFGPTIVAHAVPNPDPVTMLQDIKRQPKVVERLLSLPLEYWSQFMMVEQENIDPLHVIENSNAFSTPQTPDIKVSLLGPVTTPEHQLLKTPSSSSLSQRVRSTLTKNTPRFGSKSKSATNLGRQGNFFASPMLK

cells [6] = experiment: cells
[7] = alpha-synuclein stem-loop luciferase translation blockers – H4 neuroglioma cells, luminescence, confirmation (AID 1988); assay type: functional, cell-based
cells [8] = assay type: functional, cell-based
[9] = NIH3T3 cell viability loss – ATP luminescence, mouse fibroblasts, counter-screen, dose response (AID 2010); assay type: functional, cell-based;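 also: cells exposed to compound for about 90 hours before reading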
BJ = experiment: BJ-TERT-LT-ST fibroblast viability loss – cell-based, RAS-independent, luminescence, dose response (AID 1935); assay type: functional; details: Homo sapiens;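 also: BJ fibroblasts immortalized with TERT plus LT and ST oncogenes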
cells [10] = assay type: functional, cell-based; remark: listed apart in the source
[11] = biological target: Intestinal-type alkaline phosphatase (Homo sapiens, UniProt P09923); experiment: activation of human intestinal alkaline phosphatase – biochemical, luminescent, uHTS hits, set 2, dose response (AID 488817); assay type: functional;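 also: potency of activators that raise enzyme activity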
Sequence of Intestinal-type alkaline phosphatase (P09923 whole entry): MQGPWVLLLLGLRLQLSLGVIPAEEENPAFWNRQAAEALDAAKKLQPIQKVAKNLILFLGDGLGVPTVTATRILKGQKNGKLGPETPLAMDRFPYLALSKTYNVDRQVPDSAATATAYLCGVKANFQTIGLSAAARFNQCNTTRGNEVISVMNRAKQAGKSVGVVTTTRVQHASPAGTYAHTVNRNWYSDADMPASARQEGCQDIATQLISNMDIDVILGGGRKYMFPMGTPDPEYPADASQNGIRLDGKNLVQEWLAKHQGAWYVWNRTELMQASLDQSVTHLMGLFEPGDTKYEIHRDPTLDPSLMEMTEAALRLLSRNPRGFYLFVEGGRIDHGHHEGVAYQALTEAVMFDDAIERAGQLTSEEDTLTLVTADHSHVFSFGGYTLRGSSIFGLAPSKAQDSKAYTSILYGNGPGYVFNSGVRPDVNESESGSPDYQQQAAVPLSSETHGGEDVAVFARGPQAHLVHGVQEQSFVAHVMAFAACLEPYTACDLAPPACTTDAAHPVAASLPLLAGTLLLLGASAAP

[12] = DRD fibroblast viability loss – cell-based, non-viral oncogenic, luminescence, dose response (AID 1934); assay type: functional; details: Homo sapiens
[13] = biological target: 26S proteasome non-ATPase regulatory subunit 14 (Homo sapiens, UniProt O00487); experiment: inhibition of proteasome subunit RPN11 – biochemical, fluorescence polarization, uHTS hits, confirmation (AID 602368); assay type: functional
Sequence of 26S proteasome non-ATPase regulatory subunit 14 (O00487 whole entry): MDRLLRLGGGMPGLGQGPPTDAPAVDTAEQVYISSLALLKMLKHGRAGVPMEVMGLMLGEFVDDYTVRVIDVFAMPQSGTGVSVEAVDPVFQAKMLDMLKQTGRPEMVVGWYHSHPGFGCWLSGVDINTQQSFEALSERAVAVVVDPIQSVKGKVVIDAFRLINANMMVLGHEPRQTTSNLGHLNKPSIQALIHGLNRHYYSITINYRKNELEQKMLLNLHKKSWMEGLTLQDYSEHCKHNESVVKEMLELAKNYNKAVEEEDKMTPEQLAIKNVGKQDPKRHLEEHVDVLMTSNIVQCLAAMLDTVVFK

[14] = biological target: T2, Replicative DNA helicase DnaB (Mycobacterium tuberculosis, UniProt P9WMR3); experiment: DnaB intein splicing inhibitors, dose response, biochemical, cell-free fluorescence (AID 449749); assay type: functional
T2 sequence (P9WMR3 whole entry): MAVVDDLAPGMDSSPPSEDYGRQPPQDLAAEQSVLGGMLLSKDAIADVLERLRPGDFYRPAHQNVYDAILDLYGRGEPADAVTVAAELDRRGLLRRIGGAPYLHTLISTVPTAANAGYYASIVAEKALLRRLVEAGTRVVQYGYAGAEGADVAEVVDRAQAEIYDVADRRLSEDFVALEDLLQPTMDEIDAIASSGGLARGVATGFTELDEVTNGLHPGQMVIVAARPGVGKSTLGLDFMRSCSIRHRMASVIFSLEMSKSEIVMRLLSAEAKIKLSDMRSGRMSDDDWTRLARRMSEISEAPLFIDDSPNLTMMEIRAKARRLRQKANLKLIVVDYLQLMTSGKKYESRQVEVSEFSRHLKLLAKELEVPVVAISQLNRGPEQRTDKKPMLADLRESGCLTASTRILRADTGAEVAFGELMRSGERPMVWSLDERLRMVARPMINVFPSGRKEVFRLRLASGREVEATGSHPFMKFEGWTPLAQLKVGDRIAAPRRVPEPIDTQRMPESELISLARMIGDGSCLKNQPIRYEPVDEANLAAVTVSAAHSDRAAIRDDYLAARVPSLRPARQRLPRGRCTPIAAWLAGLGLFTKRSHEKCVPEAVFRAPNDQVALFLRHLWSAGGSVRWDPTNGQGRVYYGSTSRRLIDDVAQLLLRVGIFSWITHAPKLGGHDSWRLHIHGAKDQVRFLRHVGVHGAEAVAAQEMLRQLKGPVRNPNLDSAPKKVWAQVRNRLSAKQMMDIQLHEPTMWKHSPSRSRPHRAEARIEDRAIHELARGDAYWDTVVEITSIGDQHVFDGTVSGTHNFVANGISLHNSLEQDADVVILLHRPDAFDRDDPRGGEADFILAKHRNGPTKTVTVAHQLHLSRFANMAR

[15] = biological target: T3, Sentrin-specific protease 8 (Homo sapiens, UniProt Q96LD8); assay type: functional
T3 sequence (Q96LD8 whole entry): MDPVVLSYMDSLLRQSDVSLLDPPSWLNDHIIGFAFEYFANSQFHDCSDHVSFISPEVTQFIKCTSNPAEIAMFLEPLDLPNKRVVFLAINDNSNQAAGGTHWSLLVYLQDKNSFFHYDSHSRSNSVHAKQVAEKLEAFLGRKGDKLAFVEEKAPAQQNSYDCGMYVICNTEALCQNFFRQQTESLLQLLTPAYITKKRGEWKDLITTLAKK

[16] = biological target: Platelet-derived growth factor receptor beta (Homo sapiens, UniProt P09619); assay type: functional;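 also: value comes from a kinome panel, with PDGFRB tested as one panel member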
Sequence of Platelet-derived growth factor receptor beta (P09619 whole entry): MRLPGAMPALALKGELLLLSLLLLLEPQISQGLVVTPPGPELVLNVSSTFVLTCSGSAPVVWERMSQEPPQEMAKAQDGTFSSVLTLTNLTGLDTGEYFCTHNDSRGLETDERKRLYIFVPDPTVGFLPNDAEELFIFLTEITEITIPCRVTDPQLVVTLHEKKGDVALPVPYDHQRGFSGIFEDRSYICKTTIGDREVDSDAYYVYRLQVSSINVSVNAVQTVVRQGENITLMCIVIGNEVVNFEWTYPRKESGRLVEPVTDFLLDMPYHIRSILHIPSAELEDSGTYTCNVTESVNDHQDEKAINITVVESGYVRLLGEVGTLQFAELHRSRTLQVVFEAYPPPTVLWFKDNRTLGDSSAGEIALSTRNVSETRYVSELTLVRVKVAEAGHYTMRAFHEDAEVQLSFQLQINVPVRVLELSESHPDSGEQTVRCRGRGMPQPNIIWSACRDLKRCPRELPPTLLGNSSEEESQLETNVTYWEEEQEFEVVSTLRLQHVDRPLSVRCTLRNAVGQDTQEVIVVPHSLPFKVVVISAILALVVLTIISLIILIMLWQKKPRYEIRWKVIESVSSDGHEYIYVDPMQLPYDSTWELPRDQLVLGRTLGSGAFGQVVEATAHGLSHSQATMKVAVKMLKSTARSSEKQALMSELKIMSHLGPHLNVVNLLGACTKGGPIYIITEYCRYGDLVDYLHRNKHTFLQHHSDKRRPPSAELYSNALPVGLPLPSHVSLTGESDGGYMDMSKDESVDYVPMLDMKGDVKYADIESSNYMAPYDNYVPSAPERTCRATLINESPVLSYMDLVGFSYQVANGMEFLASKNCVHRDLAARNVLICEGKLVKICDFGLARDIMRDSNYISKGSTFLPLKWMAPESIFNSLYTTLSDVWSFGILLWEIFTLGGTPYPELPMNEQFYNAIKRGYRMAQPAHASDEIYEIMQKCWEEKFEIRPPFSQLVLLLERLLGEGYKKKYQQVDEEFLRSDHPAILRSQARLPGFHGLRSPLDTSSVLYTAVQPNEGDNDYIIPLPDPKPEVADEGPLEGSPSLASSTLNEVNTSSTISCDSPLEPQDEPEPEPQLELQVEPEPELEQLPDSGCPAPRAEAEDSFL

[17] = biological target: Serine/threonine-protein kinase Nek2 (Homo sapiens, UniProt P51955); assay type: functional
Sequence of Serine/threonine-protein kinase Nek2 (P51955 whole entry): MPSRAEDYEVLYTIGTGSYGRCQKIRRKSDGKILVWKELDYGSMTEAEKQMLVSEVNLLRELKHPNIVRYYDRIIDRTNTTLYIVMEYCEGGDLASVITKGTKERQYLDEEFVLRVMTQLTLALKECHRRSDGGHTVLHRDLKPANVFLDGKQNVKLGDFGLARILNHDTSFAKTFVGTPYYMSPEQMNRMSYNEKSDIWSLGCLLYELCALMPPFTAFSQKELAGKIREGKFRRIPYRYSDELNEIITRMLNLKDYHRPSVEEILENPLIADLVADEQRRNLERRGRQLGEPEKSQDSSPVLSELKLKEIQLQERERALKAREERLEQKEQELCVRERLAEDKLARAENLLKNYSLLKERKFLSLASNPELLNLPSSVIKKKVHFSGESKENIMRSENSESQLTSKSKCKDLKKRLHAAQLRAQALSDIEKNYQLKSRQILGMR

Sequence of Maternal embryonic leucine zipper kinase (Q14680 whole entry): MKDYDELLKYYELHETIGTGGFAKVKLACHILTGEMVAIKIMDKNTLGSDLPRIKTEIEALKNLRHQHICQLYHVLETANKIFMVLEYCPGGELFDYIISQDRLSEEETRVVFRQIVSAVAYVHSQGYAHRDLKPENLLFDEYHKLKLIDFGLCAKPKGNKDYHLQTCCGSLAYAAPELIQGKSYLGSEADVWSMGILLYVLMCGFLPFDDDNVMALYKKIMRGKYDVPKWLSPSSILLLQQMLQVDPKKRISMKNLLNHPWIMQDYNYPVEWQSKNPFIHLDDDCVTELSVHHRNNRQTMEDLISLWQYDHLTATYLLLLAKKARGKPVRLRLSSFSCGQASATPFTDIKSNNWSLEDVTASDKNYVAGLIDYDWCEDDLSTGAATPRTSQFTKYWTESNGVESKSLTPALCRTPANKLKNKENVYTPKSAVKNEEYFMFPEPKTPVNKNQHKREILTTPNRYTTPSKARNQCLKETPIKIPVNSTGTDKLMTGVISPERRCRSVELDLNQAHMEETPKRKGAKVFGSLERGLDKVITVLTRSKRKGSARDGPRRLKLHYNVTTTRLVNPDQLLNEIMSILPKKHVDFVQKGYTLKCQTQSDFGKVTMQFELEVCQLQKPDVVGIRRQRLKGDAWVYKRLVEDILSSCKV
Sequence of Activin receptor type-1 (Q04771 whole entry): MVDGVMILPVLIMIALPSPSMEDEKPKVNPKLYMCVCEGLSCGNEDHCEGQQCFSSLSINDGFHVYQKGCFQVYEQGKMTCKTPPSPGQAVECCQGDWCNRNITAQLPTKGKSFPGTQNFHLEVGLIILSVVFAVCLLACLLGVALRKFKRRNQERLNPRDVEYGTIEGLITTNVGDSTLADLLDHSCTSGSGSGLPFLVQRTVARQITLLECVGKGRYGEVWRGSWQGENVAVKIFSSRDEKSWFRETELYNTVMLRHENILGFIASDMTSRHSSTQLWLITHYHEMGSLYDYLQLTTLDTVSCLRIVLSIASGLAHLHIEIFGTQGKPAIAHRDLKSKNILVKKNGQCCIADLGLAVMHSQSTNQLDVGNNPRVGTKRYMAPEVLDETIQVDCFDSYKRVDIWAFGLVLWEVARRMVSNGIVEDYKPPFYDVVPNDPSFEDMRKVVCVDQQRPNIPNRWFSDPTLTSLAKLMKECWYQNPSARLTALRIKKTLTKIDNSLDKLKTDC

Q: What does the source list for `O=C(Nc1cc(-c2c[nH]c3ncccc23)cc(Cl)n1)c1ccccc1`?
A: Ki (Activin receptor type-1): > 3.98 µM (inactive); Ki [1]: 0.0316 µM (active); Ki [2]: > 3.16 µM (inactive); Ki [3]: 1.58 µM (active); Ki [4]: > 3.16 µM (inactive)

Q: Which IC50 [5] does the source give for `CCN1C(=Cc2sc3ccccc3[n+]2C)C=Cc2cccc(C)c21` here?
A: The IC50 was 55.9 µM (active).

Q: What about the EC50 (cells [6]) of the same molecule?
A: Its EC50 is < 0.004 µM (active).

Q: What about the EC50 [7] of the same molecule?
A: The EC50 was < 0.1 µM (active).

Q: What about the EC50 (cells [8]) of the same molecule?
A: The EC50 was > 12 µM (not active).

Q: What about the EC50 [9] of the same molecule?
A: Its EC50 is 1.86 µM (active).

Q: For `O=C(N/N=C/c1c(O)ccc2ccccc12)c1[nH]ncc1Br`, which EC50 (BJ) is on record?
A: Its EC50 is 10.5 µM (active).

Q: And the EC50 (cells [10])?
A: Its EC50 is 10.7 µM (active).

Q: And the EC50 [11]?
A: The EC50 was 11.7 µM (active).

Q: What about the EC50 [12] of the same molecule?
A: Its EC50 is 3.04 µM (active).

Q: And the IC50 [13]?
A: The IC50 was 24 µM (active).

Q: Which AC50 [14] does the source give for `O=C(Cc1ccccc1Cl)NC1(O)C(=O)c2ccccc2C1=O` here?
A: The AC50 was 7.96 µM (active).

Q: With `Nc1nnc2c(n1)CCCC2` as the molecule, how does the IC50 [15] read?
A: Its IC50 is 6.32 µM (active).

Q: Which Ki [16] does the source give for `Nc1c(-c2ccc(NC(=O)Nc3cccc(C(F)(F)F)c3)cc2)cnc2c(-c3ccc4c(c3)OCO4)cnn12` here?
A: Its Ki is 0.00794 µM (active).

Q: And the Ki [17]?
A: Its Ki is 1.26 µM (active).
